# From ChEMBL document CHEMBL1201862, “PubChem BioAssay data set” (2004)
# Activity calls are given as the source filed them.
# Assays:
# Phosphomannomutase 2 = biological target: T1, Phosphomannomutase 2 (Homo sapiens, UniProt O15305); assay: Counter screen SAR assay for PMM2 inhibitors via a fluorescence intensity assay. [Related pubchem assays (depositor defined):AID1545, AID1574]
# T1 sequence (O15305 whole entry): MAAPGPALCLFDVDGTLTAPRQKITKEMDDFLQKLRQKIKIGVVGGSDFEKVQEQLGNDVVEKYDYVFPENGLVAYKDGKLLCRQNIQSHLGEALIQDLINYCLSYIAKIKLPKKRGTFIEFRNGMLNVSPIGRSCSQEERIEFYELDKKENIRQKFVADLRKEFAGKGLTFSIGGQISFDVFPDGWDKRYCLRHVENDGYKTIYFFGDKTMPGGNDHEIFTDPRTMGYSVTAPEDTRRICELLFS
# [1] = biological target: T2, Mannose-6-phosphate isomerase (Homo sapiens, UniProt P34949); assay: phosphomannose isomerase inhibition – biochemical, fluorescence intensity, confirmation (AID 1535)
# T2 sequence (P34949 whole entry): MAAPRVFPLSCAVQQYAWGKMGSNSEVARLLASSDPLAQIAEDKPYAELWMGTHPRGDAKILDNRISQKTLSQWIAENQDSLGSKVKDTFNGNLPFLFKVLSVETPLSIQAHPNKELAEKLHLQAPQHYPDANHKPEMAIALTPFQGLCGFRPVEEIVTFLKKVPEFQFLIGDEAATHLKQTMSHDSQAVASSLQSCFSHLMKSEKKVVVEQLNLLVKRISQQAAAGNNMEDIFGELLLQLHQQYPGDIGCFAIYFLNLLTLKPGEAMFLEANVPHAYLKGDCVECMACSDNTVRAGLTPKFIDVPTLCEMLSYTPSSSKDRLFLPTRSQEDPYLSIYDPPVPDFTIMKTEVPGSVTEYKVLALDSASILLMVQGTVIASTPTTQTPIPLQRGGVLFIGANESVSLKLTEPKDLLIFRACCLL
# fMet-Leu-Phe receptor = biological target: T3, fMet-Leu-Phe receptor (Homo sapiens, UniProt P21462); assay: formyl peptide receptor binders – dose response (AID 519); format: functional
# T3 sequence (P21462 whole entry): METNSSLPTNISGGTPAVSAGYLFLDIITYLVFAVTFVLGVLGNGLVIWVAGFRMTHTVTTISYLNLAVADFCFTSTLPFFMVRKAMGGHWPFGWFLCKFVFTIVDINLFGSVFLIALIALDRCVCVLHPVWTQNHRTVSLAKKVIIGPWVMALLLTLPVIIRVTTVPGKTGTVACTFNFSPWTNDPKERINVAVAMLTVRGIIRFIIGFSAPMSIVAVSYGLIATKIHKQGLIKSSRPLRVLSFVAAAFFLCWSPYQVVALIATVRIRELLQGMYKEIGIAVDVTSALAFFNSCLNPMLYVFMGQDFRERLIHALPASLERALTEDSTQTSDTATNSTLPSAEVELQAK
# [2] = biological target: T4, Alkaline phosphatase, tissue-nonspecific isozyme (Homo sapiens, UniProt P05186); assay: potency against alkaline phosphatase TNAP – biochemical, luminescent, dose response, SAR follow-up (AID 1056)
# T4 sequence (P05186 whole entry): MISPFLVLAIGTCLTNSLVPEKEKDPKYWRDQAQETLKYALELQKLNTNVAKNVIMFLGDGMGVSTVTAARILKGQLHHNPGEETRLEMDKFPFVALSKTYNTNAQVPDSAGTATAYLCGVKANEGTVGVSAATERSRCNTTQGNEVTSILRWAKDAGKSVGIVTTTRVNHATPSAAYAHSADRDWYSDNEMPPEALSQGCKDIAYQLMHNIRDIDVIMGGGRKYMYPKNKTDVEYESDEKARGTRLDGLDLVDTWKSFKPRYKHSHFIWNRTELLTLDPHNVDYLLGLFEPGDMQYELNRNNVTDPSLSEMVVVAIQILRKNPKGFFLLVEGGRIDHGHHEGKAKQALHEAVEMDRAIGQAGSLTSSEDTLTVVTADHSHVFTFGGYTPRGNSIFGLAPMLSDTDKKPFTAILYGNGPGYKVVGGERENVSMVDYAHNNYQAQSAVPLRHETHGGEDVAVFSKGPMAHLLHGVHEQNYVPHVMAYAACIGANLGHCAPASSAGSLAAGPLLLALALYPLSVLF
# [3] = biological target: Glyceraldehyde-3-phosphate dehydrogenase (Homo sapiens, UniProt P04406)
# Streptokinase A = biological target: T5, Streptokinase A (Streptococcus pyogenes serotype M1, UniProt P10520); assay: viability-normalized secreted streptokinase activity reduction – plasminogen activation absorbance, OD405, dose response (AID 1914); format: functional, Streptococcus pyogenes M1 GAS;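 note: secreted streptokinase activity via plasminogen activation per viability signal from cell pellet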
# T5 sequence (P10520 whole entry): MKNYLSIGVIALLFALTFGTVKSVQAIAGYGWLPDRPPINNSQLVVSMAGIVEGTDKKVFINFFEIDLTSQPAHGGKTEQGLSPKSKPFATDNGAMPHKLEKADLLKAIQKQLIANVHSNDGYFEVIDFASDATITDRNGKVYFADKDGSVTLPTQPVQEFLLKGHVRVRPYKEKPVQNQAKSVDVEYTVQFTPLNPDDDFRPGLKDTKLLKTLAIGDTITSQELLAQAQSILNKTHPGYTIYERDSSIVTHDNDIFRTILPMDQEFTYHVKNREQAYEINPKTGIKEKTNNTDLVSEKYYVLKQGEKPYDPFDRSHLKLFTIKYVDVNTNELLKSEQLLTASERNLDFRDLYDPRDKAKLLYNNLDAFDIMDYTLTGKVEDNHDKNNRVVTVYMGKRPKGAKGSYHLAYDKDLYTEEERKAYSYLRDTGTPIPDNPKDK
# Cytochrome P450 2D6 = Cytochrome P450 2D6 (Homo sapiens, UniProt P10635);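 note: CYP2D6 member of a cytochrome P450 panel assay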
# [4] = system: Streptococcus sp. 'group A'; assay: Streptococcus pyogenes SK(-)GAS viability under kanamycin – luminescence, BacTiterGlo, confirmation, counter-screen for streptokinase expression inhibitor project, dose response (AID 1900); format: functional, organism-based
# Cytochrome P450 3A4 [5] = biological target: T6, Cytochrome P450 3A4 (Homo sapiens, UniProt P08684);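 note: CYP3A4 tested as one member of a cytochrome P450 panel screen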
# Streptococcus = assay: GAS UMAA2166 growth inhibition – luminescence, BacTiterGlo, counter-screen for streptokinase expression inhibitor project, dose response (AID 1915); format: functional, organism-based;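 note: potency for reduction of bacterial viability or growth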
# Cytochrome P450 2C9 = Cytochrome P450 2C9 (Homo sapiens, UniProt P11712)
# Cytochrome P450 1A2 = biological target: T7, Cytochrome P450 1A2 (Homo sapiens, UniProt P05177);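 note: PubChem cytochrome P450 panel assay, CYP1A2 panel member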
# T7 sequence (P05177 whole entry): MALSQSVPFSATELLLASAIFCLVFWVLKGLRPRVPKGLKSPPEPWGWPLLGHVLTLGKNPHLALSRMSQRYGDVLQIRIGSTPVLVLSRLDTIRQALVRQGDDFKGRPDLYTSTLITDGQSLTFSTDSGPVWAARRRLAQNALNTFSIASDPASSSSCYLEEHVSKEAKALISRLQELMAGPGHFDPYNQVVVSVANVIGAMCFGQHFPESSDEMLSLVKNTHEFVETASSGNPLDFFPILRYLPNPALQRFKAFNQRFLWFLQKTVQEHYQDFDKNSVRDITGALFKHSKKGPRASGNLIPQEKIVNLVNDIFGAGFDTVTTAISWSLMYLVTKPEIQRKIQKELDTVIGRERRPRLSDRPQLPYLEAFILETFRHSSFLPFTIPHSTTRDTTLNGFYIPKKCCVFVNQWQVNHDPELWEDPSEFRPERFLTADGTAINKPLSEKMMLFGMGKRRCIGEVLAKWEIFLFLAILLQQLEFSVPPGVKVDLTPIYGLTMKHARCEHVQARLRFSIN
# Protein Wnt-3a = Protein Wnt-3a (Mus musculus, UniProt P27467); assay: antagonism of Wnt3a pathway luciferase reporter – Wnt-LIGHT cells, luminescence, selectivity assay for Gli-SUFU antagonist project, dose response (AID 651570); format: functional; conditions: read-out: IC50_Mean;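 note: Wnt-LIGHT reporter cells stimulated with conditioned medium from Wnt3a-producing cells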
# [6] = DRD fibroblast viability loss – cell-based, non-viral oncogenic, luminescence, dose response (AID 1934); format: functional; conditions: Homo sapiens
# BJ [7] = assay: BJ-TERT fibroblast viability loss – cell-based, RAS-independent, luminescence, dose response (AID 1933); format: functional; conditions: Homo sapiens
# BJ [8] = assay: BJ-TERT-LT-ST fibroblast viability loss – cell-based, RAS-independent, luminescence, dose response (AID 1935); format: functional; conditions: Homo sapiens;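 note: BJ fibroblasts immortalized with TERT plus LT and ST oncogenes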
# BJ [9] = assay: growth inhibition of engineered Ras-driven BJ cells – cell-based, alamar blue fluorescence, cherrypicked samples, dose response (AID 2631); format: functional; conditions: Homo sapiens;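 note: confirmatory dose-response assay in RAS-dependent BJ fibroblasts engineered with TERT, LT and ST, with cytotoxicity read by fluorescence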
# BJ [10] = assay: cells; format: functional, cell-based; conditions: Homo sapiens
# Cytochrome P450 3A4 [11] = biological target: T6, Cytochrome P450 3A4; remark: listed apart in the source
# cells = format: functional
# [12] = biological target: Peroxisome proliferator-activated receptor gamma/Nuclear receptor coactivator 1 (Homo sapiens, UniProt P37231); assay: TR-FRET dose response biochemical High Throughput Screening assay for agonists of the steroid receptor coactivator 1 (SRC-1) recruitment by the peroxisome proliferator-activated receptor gamma (PPAR gamma): non-selective agonists. [Related pubchem assays (depositor defined):AID1300, AID1808, AID504735, AID631]; format: protein assay
# [13] = biological target: Peroxisome proliferator-activated receptor gamma/Nuclear receptor coactivator 2 (Homo sapiens, UniProt P37231); assay: TR-FRET dose response biochemical High Throughput Screening assay for agonists of the steroid receptor coactivator 2 (SRC-2) recruitment by the peroxisome proliferator-activated receptor gamma (PPAR gamma): non-selective agonists. [Related pubchem assays: 1297, 1032 ]; format: functional
# [14] = biological target: Peroxisome proliferator-activated receptor gamma/Nuclear receptor coactivator 3 (Homo sapiens, UniProt P37231); assay: TR-FRET dose response biochemical High Throughput Screening assay for agonists of the steroid receptor coactivator 3 (SRC-3) recruitment by the peroxisome proliferator-activated receptor gamma (PPAR gamma): non-selective agonists. [Related pubchem assays: 1301 (Confirmation screen.), 1048 (Primary screen.)]; format: functional
# Cytochrome P450 2C19 = Cytochrome P450 2C19 (Homo sapiens, UniProt P33261); assay: Cytochrome panel assay with activity outcomes. Panel member name: p450-cyp2c19 Compounds with AC50 equal or less than 10 uM are considered active; format: functional
# Sequence of Protein Wnt-3a (P27467 whole entry): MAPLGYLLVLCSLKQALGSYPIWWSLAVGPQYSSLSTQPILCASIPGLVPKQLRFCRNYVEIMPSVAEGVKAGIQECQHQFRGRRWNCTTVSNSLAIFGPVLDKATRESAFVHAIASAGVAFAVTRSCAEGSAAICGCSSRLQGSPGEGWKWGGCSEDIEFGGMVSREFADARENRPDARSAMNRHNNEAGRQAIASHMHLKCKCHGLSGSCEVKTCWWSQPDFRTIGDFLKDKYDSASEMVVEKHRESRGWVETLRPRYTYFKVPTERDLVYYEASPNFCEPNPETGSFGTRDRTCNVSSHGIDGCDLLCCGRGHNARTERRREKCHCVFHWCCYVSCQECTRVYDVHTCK
# Sequence of Peroxisome proliferator-activated receptor gamma/Nuclear receptor coactivator 3 (P37231 whole entry): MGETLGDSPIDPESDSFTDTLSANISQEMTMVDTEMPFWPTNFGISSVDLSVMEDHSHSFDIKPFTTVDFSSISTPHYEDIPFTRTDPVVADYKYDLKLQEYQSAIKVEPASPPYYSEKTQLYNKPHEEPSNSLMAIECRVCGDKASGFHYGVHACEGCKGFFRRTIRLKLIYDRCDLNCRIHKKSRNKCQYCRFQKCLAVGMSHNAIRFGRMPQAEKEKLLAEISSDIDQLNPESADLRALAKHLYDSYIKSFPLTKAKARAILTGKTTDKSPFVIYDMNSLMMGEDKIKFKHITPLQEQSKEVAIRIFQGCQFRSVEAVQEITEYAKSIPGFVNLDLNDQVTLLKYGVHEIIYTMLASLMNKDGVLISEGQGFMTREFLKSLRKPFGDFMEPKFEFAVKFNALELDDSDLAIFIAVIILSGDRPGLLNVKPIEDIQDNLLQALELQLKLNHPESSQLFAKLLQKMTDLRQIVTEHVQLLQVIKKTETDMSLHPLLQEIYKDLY
# Sequence of Peroxisome proliferator-activated receptor gamma/Nuclear receptor coactivator 3 (Q9Y6Q9 whole entry, further chain): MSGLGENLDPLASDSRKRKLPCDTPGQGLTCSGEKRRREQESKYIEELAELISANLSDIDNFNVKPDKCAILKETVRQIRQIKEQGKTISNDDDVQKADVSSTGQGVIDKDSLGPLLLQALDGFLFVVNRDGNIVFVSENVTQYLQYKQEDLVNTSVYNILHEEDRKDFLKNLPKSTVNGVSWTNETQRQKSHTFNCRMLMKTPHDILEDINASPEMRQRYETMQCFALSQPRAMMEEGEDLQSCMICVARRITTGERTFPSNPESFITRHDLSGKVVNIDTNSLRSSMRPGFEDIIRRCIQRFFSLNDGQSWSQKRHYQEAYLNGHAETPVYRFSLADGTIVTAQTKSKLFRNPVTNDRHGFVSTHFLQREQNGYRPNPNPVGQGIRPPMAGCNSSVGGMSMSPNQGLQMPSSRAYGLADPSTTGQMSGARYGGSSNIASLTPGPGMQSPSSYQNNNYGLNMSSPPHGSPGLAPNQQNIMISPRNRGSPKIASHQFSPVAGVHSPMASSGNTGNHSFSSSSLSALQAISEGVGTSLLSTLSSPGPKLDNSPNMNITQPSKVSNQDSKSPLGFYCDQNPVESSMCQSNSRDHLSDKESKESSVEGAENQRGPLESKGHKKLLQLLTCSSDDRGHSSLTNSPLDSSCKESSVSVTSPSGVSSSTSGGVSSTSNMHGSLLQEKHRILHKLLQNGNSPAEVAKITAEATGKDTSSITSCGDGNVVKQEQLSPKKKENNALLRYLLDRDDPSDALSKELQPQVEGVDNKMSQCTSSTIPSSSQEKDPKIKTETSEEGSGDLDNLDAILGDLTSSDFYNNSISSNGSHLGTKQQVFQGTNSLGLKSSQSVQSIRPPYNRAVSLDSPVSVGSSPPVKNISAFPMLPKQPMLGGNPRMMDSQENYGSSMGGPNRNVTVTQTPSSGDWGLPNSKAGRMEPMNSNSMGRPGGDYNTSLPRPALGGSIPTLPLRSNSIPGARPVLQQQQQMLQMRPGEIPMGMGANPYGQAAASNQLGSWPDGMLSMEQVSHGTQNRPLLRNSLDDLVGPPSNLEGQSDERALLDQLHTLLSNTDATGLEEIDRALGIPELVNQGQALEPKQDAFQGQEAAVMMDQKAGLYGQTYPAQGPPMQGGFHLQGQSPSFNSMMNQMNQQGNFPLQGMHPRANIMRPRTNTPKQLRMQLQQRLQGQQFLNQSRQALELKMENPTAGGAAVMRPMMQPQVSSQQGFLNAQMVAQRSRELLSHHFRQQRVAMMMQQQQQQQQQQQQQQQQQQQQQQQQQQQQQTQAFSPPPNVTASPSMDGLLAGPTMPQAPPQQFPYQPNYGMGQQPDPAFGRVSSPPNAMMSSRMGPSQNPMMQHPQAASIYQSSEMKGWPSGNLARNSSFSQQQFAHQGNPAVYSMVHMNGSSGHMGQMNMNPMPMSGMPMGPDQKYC
# Sequence of Peroxisome proliferator-activated receptor gamma/Nuclear receptor coactivator 1 (P37231 whole entry): as the sequence (P37231 whole entry) above
# Sequence of Peroxisome proliferator-activated receptor gamma/Nuclear receptor coactivator 1 (Q15788 whole entry, further chain): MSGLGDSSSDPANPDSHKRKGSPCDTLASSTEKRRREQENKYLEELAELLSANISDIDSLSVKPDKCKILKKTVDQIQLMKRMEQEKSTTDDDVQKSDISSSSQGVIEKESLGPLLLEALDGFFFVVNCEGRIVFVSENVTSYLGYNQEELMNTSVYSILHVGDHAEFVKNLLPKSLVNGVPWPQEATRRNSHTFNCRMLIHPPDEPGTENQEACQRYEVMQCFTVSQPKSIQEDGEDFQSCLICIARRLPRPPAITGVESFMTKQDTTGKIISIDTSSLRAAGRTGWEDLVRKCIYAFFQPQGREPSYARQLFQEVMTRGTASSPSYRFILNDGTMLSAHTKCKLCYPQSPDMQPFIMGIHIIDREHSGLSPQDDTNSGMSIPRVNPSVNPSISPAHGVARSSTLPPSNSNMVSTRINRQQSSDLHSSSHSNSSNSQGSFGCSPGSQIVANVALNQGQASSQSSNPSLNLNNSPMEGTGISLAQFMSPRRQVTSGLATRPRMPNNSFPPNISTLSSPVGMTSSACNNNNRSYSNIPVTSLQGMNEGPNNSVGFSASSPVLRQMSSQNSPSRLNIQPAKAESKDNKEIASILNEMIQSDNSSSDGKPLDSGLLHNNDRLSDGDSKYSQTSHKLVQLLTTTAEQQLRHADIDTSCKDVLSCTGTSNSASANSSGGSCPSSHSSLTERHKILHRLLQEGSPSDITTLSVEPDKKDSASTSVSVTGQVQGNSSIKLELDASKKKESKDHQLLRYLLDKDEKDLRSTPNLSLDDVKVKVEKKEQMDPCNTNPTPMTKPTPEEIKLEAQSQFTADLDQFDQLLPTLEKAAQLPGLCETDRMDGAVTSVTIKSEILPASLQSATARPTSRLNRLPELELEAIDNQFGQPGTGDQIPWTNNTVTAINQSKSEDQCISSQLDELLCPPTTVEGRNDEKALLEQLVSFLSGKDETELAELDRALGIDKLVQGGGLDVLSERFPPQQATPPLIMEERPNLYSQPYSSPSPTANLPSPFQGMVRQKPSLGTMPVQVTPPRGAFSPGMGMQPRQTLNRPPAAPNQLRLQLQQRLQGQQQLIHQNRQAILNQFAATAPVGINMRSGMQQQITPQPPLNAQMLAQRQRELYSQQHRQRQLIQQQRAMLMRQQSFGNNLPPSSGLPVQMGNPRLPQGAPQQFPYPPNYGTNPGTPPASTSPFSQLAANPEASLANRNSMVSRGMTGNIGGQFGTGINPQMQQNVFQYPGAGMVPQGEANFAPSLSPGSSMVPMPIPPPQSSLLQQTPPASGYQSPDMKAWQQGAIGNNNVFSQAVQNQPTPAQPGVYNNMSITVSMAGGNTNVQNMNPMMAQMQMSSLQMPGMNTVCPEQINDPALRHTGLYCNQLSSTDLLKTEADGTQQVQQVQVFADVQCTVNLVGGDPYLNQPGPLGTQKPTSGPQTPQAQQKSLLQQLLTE
# T6 sequence (P08684 whole entry): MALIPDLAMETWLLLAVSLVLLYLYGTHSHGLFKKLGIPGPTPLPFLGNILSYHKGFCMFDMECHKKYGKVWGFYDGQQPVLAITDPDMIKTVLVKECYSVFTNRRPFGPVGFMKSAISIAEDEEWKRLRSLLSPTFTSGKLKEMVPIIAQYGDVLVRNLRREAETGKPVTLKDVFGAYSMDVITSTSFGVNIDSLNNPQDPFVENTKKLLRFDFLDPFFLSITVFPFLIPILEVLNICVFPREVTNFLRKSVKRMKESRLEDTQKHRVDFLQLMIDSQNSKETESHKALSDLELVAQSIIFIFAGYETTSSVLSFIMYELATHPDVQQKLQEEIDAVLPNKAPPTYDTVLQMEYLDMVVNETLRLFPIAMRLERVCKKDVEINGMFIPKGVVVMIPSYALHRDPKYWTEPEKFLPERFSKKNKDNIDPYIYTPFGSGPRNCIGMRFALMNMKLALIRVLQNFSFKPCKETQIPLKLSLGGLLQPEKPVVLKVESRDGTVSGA
# Sequence of Glyceraldehyde-3-phosphate dehydrogenase (P04406 whole entry): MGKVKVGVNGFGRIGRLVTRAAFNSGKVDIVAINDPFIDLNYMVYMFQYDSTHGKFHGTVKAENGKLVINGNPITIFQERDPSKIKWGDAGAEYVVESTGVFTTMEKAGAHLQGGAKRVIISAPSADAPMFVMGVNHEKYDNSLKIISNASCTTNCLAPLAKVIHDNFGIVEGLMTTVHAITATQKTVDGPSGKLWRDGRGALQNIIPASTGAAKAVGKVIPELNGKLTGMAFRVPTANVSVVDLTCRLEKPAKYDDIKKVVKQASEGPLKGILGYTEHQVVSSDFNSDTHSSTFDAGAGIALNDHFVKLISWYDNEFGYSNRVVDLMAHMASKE
smiles,measurement,setting,value
Cc1nnc(/N=c2\ssnc2Cl)o1,IC50,Phosphomannomutase 2,> 100 µM (inactive)
same,IC50,[1],1.07 µM (active)
CCOc1cccc(C(=O)C2=C(O)C(=O)N(CCOC)C2c2ccc(C)o2)c1 (centres undefined),Ki,fMet-Leu-Phe receptor,13.5 µM (active)
COc1cccc(-c2cc(C(=O)O)[nH]n2)c1,IC50,[2],> 100 µM (inactive)
same,IC50,[3],> 100 µM (not active)
O=C(c1cnc(-c2ccccc2)s1)c1ccc(Cl)cc1Cl,EC50,Streptokinase A,33.7 µM (active)
same,AC50,Cytochrome P450 2D6,22.4 µM (inconclusive)
same,EC50,[4],16.2 µM (active)
same,AC50,Cytochrome P450 3A4 [5],inconclusive
same,EC50,Streptococcus,> 150 µM (not active)
NC(=O)c1cn(S(=O)(=O)c2ccc3ccccc3c2)c2ccccc12,IC50,[2],> 100 µM (inactive)
same,IC50,[3],> 100 µM (not active)
CC(C)(C)c1ccc(-c2c(C#N)c(N)nc3c2CCCC3)s1,AC50,Cytochrome P450 2C9,7.08 µM (inconclusive)
same,AC50,Cytochrome P450 3A4 [5],inconclusive
CN1CCN(c2ncc3nc(-c4ccc(Cl)cc4)c(=O)n(Cc4ccc(F)cc4)c3n2)CC1,AC50,Cytochrome P450 2D6,39.8 µM (inconclusive)
same,AC50,Cytochrome P450 3A4 [5],inconclusive
same,AC50,Cytochrome P450 1A2,31.6 µM (inconclusive)
CC(C)C[C@H]1CN=C(N(C)C)N1CCCCc1ccccc1,IC50,Protein Wnt-3a,11.7 µM (active)
O=C(Cn1cnnc1)c1ccc(O)c(O)c1,IC50,[2],> 100 µM (inactive)
COc1cc(OC)c(C2=NOC(C(=O)NCc3cccs3)C2)cc1Cl (centres undefined),EC50,[6],17.7 µM (inconclusive)
same,EC50,BJ [7],> 150 µM (not active)
same,EC50,BJ [8],32 µM (active)
same,EC50,BJ [9],108 µM (active)
same,EC50,BJ [10],63.7 µM (active)
CCOC(=O)N1CCN(C(=O)c2ccc(CSc3ccc(Cl)cc3)cc2)CC1,IC50,Protein Wnt-3a,15.6 µM (active)
CCS(=O)(=O)N(C)[C@@H]1c2cc(C#N)ccc2OC(C)(C)[C@H]1O,AC50,Cytochrome P450 3A4 [11],15.8 µM (inconclusive)
same,AC50,Cytochrome P450 3A4 [5],15.8 µM (inconclusive)
COc1cc(N=c2ssnc2Cl)cc(OC)c1,IC50,Phosphomannomutase 2,> 100 µM (inactive)
same,IC50,[1],17.2 µM (active)
CC(=O)Nc1ccc(/C=N/Nc2nc3ccccc3[nH]2)cc1,EC50,[6],> 150 µM (inconclusive)
same,EC50,BJ [7],> 150 µM (not active)
same,EC50,BJ [8],> 150 µM (inconclusive)
same,EC50,BJ [9],> 133 µM (inactive)
same,EC50,BJ [10],5.82 µM (active)
COC(=O)COc1ccc2c(=O)c(Oc3ccccc3)c(C)oc2c1,IC50,cells,2.94 µM (active)
same,Ki,fMet-Leu-Phe receptor,> 66.7 µM (inactive)
COC(=O)c1c(C)[nH]c(C(=O)C(C)Sc2nnc(-c3cc(OC)c(OC)c(OC)c3)o2)c1C (centres undefined),EC50,[12],> 79.4 µM (inactive)
same,EC50,[13],> 79.4 µM (not active)
same,EC50,[14],> 79.4 µM (not active)
CC(=O)c1sc(NC(=O)C(C)C)nc1C,AC50,Cytochrome P450 2C9,39.8 µM (inconclusive)
same,EC50,[12],> 79.4 µM (inactive)
same,AC50,Cytochrome P450 2C19,inconclusive
same,EC50,[13],> 26.5 µM (not active)
same,EC50,[14],> 79.4 µM (not active)
O=C(Nc1ccccc1)N1CCC2(CC1)CCN(C(=O)Oc1ccccc1)CC2,AC50,Cytochrome P450 3A4 [5],inconclusive
COc1ccc(NC(=O)CSc2c3c(nc4ccccc24)CCCC3)c(OC)c1,EC50,[12],> 79.4 µM (inactive)
same,EC50,[13],35.4 µM (not active)
same,EC50,[14],> 79.4 µM (not active)
O=C(N[C@@H]1C/C=C\C[C@@H](CC(=O)N(CCO)Cc2ccccc2)C(=O)NCCOC1=O)OCC1c2ccccc2-c2ccccc21,IC50,Protein Wnt-3a,24.2 µM (inactive)
